Columns and labels:
IKZF3 = target: T1, IKZF3 (Homo sapiens, UniProt Q96SW2+Q9UKT9); test: Western blot, degradation of substrate protein in hPBMCs; assay type: cell-based
T1 construct: effects of the compounds of the present disclosure on the expression of target proteins in cells; endogenous in cells; host or cells: human PBMCs (Milecell Biotechnologies)

WEE1 = target: T2, WEE1 (Homo sapiens, UniProt P30291+Q96SW2); test: as above; assay type: cell-based
T2 construct: effects of the compounds of the present disclosure on the expression of target proteins in cells; endogenous in cells; host or cells: human PBMCs (Milecell Biotechnologies)
T2 sequence (P30291 whole entry): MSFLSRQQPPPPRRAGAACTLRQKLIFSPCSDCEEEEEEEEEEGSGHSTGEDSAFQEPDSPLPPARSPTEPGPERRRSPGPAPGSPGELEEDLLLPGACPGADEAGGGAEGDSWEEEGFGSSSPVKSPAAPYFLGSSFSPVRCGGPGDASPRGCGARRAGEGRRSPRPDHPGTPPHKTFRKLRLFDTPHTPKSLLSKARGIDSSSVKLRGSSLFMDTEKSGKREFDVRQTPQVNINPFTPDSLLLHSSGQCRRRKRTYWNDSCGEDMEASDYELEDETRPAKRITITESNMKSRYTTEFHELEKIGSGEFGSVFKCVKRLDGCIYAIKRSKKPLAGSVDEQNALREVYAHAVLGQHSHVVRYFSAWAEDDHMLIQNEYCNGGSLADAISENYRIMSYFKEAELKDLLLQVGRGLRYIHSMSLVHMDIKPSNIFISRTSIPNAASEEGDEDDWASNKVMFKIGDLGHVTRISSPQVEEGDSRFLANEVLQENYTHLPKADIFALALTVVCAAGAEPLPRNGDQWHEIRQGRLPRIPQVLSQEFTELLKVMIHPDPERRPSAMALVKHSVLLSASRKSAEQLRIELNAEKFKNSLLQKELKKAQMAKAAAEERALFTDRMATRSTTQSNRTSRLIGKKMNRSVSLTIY
T2 sequence (Q96SW2 whole entry): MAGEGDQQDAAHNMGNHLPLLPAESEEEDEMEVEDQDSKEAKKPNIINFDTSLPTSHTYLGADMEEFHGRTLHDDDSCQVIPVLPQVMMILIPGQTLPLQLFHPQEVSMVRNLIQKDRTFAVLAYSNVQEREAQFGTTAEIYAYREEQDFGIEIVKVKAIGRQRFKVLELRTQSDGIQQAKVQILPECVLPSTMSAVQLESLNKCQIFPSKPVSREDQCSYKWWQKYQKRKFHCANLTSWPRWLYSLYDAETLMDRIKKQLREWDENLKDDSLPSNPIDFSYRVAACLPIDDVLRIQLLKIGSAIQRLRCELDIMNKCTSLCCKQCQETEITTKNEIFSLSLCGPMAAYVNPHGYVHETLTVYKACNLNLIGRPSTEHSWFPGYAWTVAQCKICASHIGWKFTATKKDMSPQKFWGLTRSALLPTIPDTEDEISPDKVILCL
T2 sequence (Q16531 whole entry partner): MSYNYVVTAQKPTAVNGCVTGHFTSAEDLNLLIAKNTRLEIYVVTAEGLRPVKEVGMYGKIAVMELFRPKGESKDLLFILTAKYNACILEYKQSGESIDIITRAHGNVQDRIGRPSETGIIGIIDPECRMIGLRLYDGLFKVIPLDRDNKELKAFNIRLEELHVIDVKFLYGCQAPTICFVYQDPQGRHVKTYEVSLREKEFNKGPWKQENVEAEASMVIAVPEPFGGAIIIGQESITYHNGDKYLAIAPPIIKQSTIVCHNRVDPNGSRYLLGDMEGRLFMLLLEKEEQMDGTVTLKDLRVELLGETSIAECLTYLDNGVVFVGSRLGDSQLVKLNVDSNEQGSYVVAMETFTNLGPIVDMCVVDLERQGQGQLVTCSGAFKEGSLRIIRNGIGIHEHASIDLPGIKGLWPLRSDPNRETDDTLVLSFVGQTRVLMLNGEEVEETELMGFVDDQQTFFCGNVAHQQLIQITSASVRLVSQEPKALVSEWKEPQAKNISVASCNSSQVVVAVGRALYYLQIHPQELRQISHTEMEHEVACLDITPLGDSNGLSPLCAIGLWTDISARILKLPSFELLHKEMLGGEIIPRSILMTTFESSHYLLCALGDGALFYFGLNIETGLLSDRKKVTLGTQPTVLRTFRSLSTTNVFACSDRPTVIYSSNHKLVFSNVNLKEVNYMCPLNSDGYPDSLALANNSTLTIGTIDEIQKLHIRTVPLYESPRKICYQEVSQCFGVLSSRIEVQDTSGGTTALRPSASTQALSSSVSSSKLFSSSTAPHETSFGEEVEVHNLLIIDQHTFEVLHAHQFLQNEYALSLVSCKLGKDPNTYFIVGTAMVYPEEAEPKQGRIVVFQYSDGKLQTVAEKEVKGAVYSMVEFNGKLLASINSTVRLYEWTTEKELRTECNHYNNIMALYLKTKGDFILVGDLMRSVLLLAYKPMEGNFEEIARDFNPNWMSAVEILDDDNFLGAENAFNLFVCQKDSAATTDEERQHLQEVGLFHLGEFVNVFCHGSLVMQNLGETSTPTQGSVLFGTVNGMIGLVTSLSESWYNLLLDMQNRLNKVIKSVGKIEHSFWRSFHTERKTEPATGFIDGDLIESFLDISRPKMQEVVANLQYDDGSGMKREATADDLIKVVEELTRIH

IKZF1 = target: T3, IKZF1 (Homo sapiens, UniProt Q13422+Q96SW2); test: as above; assay type: cell-based
T3 construct: effects of the compounds of the present disclosure on the expression of target proteins in cells; endogenous in cells; host or cells: human PBMCs (Milecell Biotechnologies)
T3 sequence (Q13422 whole entry): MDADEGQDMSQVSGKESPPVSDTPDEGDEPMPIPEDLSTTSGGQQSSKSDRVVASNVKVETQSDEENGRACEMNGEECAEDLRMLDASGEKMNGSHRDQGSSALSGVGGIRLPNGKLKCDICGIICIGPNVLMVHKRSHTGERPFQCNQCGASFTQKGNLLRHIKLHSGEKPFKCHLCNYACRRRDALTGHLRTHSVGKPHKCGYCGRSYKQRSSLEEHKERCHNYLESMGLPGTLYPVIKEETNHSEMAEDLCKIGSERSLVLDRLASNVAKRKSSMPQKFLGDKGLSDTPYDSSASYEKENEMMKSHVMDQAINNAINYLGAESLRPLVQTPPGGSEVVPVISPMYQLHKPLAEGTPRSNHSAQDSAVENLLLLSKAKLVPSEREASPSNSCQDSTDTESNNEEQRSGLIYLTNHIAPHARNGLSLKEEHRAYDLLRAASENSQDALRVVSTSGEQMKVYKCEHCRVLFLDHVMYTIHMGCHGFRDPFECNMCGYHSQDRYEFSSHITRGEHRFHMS
T3 sequence (Q96SW2 whole entry): as the sequence (Q96SW2 whole entry) above
T3 sequence (Q16531 whole entry partner): as the sequence (Q16531 whole entry partner) above

CK1α = target: T4, CK1α (Homo sapiens, UniProt P48729+Q96SW2); test: as above; assay type: cell-based
T4 construct: effects of the compounds of the present disclosure on the expression of target proteins in cells; endogenous in cells; host or cells: human PBMCs (Milecell Biotechnologies)
T4 sequence (P48729 whole entry): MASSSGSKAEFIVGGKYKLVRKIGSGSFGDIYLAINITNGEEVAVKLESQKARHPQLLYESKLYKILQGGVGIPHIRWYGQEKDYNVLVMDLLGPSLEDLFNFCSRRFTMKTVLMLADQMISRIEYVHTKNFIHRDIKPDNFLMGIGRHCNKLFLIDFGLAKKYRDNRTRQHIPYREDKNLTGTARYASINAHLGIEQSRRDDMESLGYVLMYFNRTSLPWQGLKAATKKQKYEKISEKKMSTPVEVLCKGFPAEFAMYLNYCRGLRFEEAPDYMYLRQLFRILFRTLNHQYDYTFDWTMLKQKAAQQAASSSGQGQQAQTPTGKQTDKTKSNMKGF
T4 sequence (Q96SW2 whole entry): as the sequence (Q96SW2 whole entry) above
T4 sequence (Q16531 whole entry partner): as the sequence (Q16531 whole entry partner) above

IKZF2 = target: T5, IKZF2 (Homo sapiens, UniProt Q96SW2+Q9UKS7); test: as above; assay type: cell-based
T5 construct: effects of the compounds of the present disclosure on the expression of target proteins in cells; endogenous in cells; host or cells: human PBMCs (Milecell Biotechnologies)
T5 sequence (Q9UKS7 whole entry): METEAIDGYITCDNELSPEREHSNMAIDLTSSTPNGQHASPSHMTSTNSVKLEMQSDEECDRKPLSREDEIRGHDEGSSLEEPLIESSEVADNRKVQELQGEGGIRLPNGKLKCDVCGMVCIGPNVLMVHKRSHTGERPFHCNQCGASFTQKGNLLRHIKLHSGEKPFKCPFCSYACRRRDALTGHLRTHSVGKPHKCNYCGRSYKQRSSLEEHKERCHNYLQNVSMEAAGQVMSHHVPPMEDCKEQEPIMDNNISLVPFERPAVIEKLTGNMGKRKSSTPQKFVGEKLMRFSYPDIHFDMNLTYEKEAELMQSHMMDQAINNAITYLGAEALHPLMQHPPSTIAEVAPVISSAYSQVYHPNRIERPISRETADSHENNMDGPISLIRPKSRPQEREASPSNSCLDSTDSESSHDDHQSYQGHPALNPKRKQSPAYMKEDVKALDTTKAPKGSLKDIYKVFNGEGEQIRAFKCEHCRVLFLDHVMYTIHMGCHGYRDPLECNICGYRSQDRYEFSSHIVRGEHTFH
T5 sequence (Q96SW2 whole entry): as the sequence (Q96SW2 whole entry) above
T5 sequence (Q16531 whole entry partner): as the sequence (Q16531 whole entry partner) above

GSPT1 = test: as above; assay type: cell-based, Human
[1] = target: T6, human Cereblon WT GST-tagged protein (Homo sapiens, UniProt Q96SW2); test: CRBN-binding affinity, HTRF (CEREBLON BINDING kit); conditions: for inhibition at 0.5 µM: read-out: Inhibition Rate at 0.5 µM (%); for inhibition at 2 µM: read-out: Inhibition Rate at 2 µM (%)
T6 construct: purchased CISBIO 64BDCRBNPEH
T6 sequence (Q96SW2 whole entry): as the sequence (Q96SW2 whole entry) above

[2] = Western blot, 24 hours of compound treatment, compounds tested at 50 nM and 500 nM (concentration for the table not stated)
[3] = 24 hours treatment, compounds at 50 nM and 500 nM (concentration behind the class not stated)

T1 sequence (Q9UKT9 whole entry): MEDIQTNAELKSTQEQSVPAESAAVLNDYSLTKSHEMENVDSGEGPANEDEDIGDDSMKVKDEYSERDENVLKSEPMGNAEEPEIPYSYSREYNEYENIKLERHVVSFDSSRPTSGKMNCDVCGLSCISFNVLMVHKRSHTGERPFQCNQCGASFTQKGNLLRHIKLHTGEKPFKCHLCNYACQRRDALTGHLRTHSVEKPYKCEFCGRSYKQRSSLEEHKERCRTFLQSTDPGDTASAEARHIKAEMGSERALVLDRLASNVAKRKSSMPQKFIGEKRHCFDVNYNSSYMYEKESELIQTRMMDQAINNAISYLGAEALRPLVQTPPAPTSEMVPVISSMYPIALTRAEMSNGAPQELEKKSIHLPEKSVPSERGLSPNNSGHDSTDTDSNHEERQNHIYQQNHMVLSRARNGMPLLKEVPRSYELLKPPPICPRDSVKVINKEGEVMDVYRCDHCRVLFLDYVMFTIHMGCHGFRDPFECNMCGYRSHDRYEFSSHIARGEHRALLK
T1 sequence (Q96SW2 whole entry): as the sequence (Q96SW2 whole entry) above
T1 sequence (Q16531 whole entry partner): as the sequence (Q16531 whole entry partner) above

Cc1ccccc1N1CCN(Cc2ccc3c(c2)CN(C2CCC(=O)NC2=O)C3=S)CC1 (centres unmarked) [GT-08601, 3-(1-thioxo-5-((4-(o-tolyl)piperazin-1-yl)methyl)isoindolin-2-yl)piperidine-2,6-dione]
IKZF3 substrate protein remaining % (IKZF3; [2]): B (80%< substrate protein remaining %≤ 100%) | Wee1 substrate protein remaining % (WEE1; [2]): B (80%< substrate protein remaining %≤ 100%) | IKZF 1 substrate protein remaining % (IKZF1; [2]): B (80%< substrate protein remaining %≤ 100%) | CK1α substrate protein remaining % (CK1α; [2]): B (80%< substrate protein remaining %≤ 100%) | IKZF2 substrate protein remaining % (IKZF2; [2]): B (80%< substrate protein remaining %≤ 100%) | GSPT1 substrate protein remaining % (GSPT1; [2]): A (0% ≤ substrate protein remaining % ≤ 80%) | inhibition at 0.5 µM [1]: 40 to 53% | inhibition at 2 µM [1]: 80 to 100%

O=C1CCC(N2Cc3cc(CN4CC5CCC(C4)N5c4cccc(Cl)c4Cl)ccc3C2=S)C(=O)N1 (centres unmarked) [GT-08479, 3-(5-((8-(2,3-dichlorophenyl)-3,8-diazabicyclo[3.2.1]octan-3-yl)methyl)-1-thioxoisoindolin-2-yl)piperidine-2,6-dione]
IKZF3 substrate protein remaining % (IKZF3; [2]): B (80%< substrate protein remaining %≤ 100%) | Wee1 substrate protein remaining % (WEE1; [2]): B (80%< substrate protein remaining %≤ 100%) | IKZF 1 substrate protein remaining % (IKZF1; [2]): B (80%< substrate protein remaining %≤ 100%) | CK1α substrate protein remaining % (CK1α; [2]): B (80%< substrate protein remaining %≤ 100%) | IKZF2 substrate protein remaining % (IKZF2; [2]): B (80%< substrate protein remaining %≤ 100%) | GSPT1 substrate protein remaining % (GSPT1; [2]): A (0% ≤ substrate protein remaining % ≤ 80%) | inhibition at 0.5 µM [1]: 40 to 53% | inhibition at 2 µM [1]: 60 to 80%

O=C1CCC(N2Cc3cc(CN4CCC(c5ccnc(Cl)c5Cl)CC4)ccc3C2=S)C(=O)N1 (centres unmarked) [GT-08475, 3-(5-((4-(2,3-dichloropyridin-4-yl)piperidin-1-yl)methyl)-1-thioxoisoindolin-2-yl)piperidine-2,6-dione]
IKZF3 substrate protein remaining % (IKZF3; [2]): B (80%< substrate protein remaining %≤ 100%) | Wee1 substrate protein remaining % (WEE1; [2]): B (80%< substrate protein remaining %≤ 100%) | IKZF 1 substrate protein remaining % (IKZF1; [2]): B (80%< substrate protein remaining %≤ 100%) | CK1α substrate protein remaining % (CK1α; [2]): B (80%< substrate protein remaining %≤ 100%) | IKZF2 substrate protein remaining % (IKZF2; [2]): B (80%< substrate protein remaining %≤ 100%) | GSPT1 substrate protein remaining % (GSPT1; [2]): A (0% ≤ substrate protein remaining % ≤ 80%) | inhibition at 0.5 µM [1]: 60 to 80% | inhibition at 2 µM [1]: 80 to 100%

Cc1cc(N2CCN(Cc3ccc4c(c3)CN(C3CCC(=O)NC3=O)C4=S)CC2)ccn1 (centres unmarked) [GT-09234, 3-(5-((4-(2-methylpyridin-4-yl)piperazin-1-yl)methyl)-1-thioxoisoindolin-2-yl)piperidine-2,6-dione]
IKZF3 substrate protein remaining % (IKZF3; [2]): A (0% ≤ substrate protein remaining % ≤ 80%) | Wee1 substrate protein remaining % (WEE1; [2]): A (0% ≤ substrate protein remaining % ≤ 80%) | IKZF 1 substrate protein remaining % (IKZF1; [2]): A (0% ≤ substrate protein remaining % ≤ 80%) | CK1α substrate protein remaining % (CK1α; [2]): A (0% ≤ substrate protein remaining % ≤ 80%) | IKZF2 substrate protein remaining % (IKZF2; [2]): A (0% ≤ substrate protein remaining % ≤ 80%) | GSPT1 substrate protein remaining % (GSPT1; [2]): A (0% ≤ substrate protein remaining % ≤ 80%) | inhibition at 0.5 µM [1]: 60 to 80% | inhibition at 2 µM [1]: 80 to 100%

COc1cccc(N2CCN(Cc3cccc4c3CN(C3CCC(=O)NC3=O)C4=S)CC2)c1 (centres unmarked) [GT-08304, 3-(4-((4-(3-methoxyphenyl)piperazin-1-yl)methyl)-1-thioxoisoindolin-2-yl)piperidine-2,6-dione]
IKZF3 substrate protein remaining % (IKZF3; [2]): B (80%< substrate protein remaining %≤ 100%) | Wee1 substrate protein remaining % (WEE1; [2]): A (0% ≤ substrate protein remaining % ≤ 80%) | IKZF 1 substrate protein remaining % (IKZF1; [2]): A (0% ≤ substrate protein remaining % ≤ 80%) | CK1α substrate protein remaining % (CK1α; [2]): B (80%< substrate protein remaining %≤ 100%) | IKZF2 substrate protein remaining % (IKZF2; [2]): B (80%< substrate protein remaining %≤ 100%) | GSPT1 substrate protein remaining % (GSPT1; [2]): B (80%< substrate protein remaining %≤ 100%) | inhibition at 0.5 µM [1]: 60 to 80% | inhibition at 2 µM [1]: 60 to 80%

O=C1CCC(N2Cc3cc(CN4CCN(c5nsc6cc(F)ccc56)CC4)ccc3C2=S)C(=O)N1 (centres unmarked) [GT-09259, 3-(5-((4-(6-fluorobenzo[d]isothiazol-3-yl)piperazin-1-yl)methyl)-1-thioxoisoindolin-2-yl)piperidine-2,6-dione]
IKZF3 substrate protein remaining % (IKZF3; [3]): B (80%< substrate protein remaining %≤ 100%) | Wee1 substrate protein remaining % (WEE1; [3]): B (80%< substrate protein remaining %≤ 100%) | IKZF 1 substrate protein remaining % (IKZF1; [3]): B (80%< substrate protein remaining %≤ 100%) | CK1α substrate protein remaining % (CK1α; [3]): B (80%< substrate protein remaining %≤ 100%) | IKZF2 substrate protein remaining % (IKZF2; [3]): B (80%< substrate protein remaining %≤ 100%) | GSPT1 substrate protein remaining % (GSPT1; [3]): A (0% ≤ substrate protein remaining % ≤ 80%) | inhibition at 0.5 µM [1]: 53 to 60% | inhibition at 2 µM [1]: 80 to 100%

O=C1CCC(N2Cc3c(CN4CCN(c5c(Cl)cncc5Br)CC4)cccc3C2=S)C(=O)N1 (centres unmarked) [GT-08801, 3-(4-((4-(3-bromo-5-chloropyridin-4-yl)piperazin-1-yl)methyl)-1-thioxoisoindolin-2-yl)piperidine-2,6-dione]
IKZF3 substrate protein remaining % (IKZF3; [2]): B (80%< substrate protein remaining %≤ 100%) | Wee1 substrate protein remaining % (WEE1; [2]): A (0% ≤ substrate protein remaining % ≤ 80%) | IKZF 1 substrate protein remaining % (IKZF1; [2]): B (80%< substrate protein remaining %≤ 100%) | CK1α substrate protein remaining % (CK1α; [2]): B (80%< substrate protein remaining %≤ 100%) | IKZF2 substrate protein remaining % (IKZF2; [2]): B (80%< substrate protein remaining %≤ 100%) | GSPT1 substrate protein remaining % (GSPT1; [2]): B (80%< substrate protein remaining %≤ 100%) | inhibition at 0.5 µM [1]: 60 to 80% | inhibition at 2 µM [1]: 80 to 100%

O=C1CCC(N2Cc3c(CN4CCN(c5cncc(Cl)c5Cl)CC4)cccc3C2=S)C(=O)N1 (centres unmarked) [GT-08724, 3-(4-((4-(4,5-dichloropyridin-3-yl)piperazin-1-yl)methyl)-1-thioxoisoindolin-2-yl)piperidine-2,6-dione]
IKZF3 substrate protein remaining % (IKZF3; [2]): B (80%< substrate protein remaining %≤ 100%) | Wee1 substrate protein remaining % (WEE1; [2]): A (0% ≤ substrate protein remaining % ≤ 80%) | IKZF 1 substrate protein remaining % (IKZF1; [2]): B (80%< substrate protein remaining %≤ 100%) | CK1α substrate protein remaining % (CK1α; [2]): B (80%< substrate protein remaining %≤ 100%) | IKZF2 substrate protein remaining % (IKZF2; [2]): B (80%< substrate protein remaining %≤ 100%) | GSPT1 substrate protein remaining % (GSPT1; [2]): B (80%< substrate protein remaining %≤ 100%) | inhibition at 0.5 µM [1]: 60 to 80% | inhibition at 2 µM [1]: 80 to 100%

O=C1CCC(N2Cc3c(CN4CCC(c5cccc6cnccc56)CC4)cccc3C2=S)C(=O)N1 (centres unmarked) [GT-08857, 3-(4-((4-(isoquinolin-5-yl)piperidin-1-yl)methyl)-1-thioxoisoindolin-2-yl)piperidine-2,6-dione]
IKZF3 substrate protein remaining % (IKZF3; [3]): A (0% ≤ substrate protein remaining % ≤ 80%) | Wee1 substrate protein remaining % (WEE1; [3]): A (0% ≤ substrate protein remaining % ≤ 80%) | IKZF 1 substrate protein remaining % (IKZF1; [3]): B (80%< substrate protein remaining %≤ 100%) | CK1α substrate protein remaining % (CK1α; [3]): B (80%< substrate protein remaining %≤ 100%) | IKZF2 substrate protein remaining % (IKZF2; [3]): B (80%< substrate protein remaining %≤ 100%) | GSPT1 substrate protein remaining % (GSPT1; [3]): B (80%< substrate protein remaining %≤ 100%) | inhibition at 0.5 µM [1]: 60 to 80% | inhibition at 2 µM [1]: 80 to 100%

O=C1CCC(N2Cc3c(CN4CC=C(c5c[nH]c6ncccc56)CC4)cccc3C2=S)C(=O)N1 (centres unmarked) [GT-08494, 3-(4-((4-(1H-pyrrolo[2,3-b]pyridin-3-yl)-3,6-dihydropyridin-1(2H)-yl)methyl)-1-thioxoisoindolin-2-yl)piperidine-2,6-dione]
IKZF3 substrate protein remaining % (IKZF3; [2]): B (80%< substrate protein remaining %≤ 100%) | Wee1 substrate protein remaining % (WEE1; [2]): A (0% ≤ substrate protein remaining % ≤ 80%) | IKZF 1 substrate protein remaining % (IKZF1; [2]): A (0% ≤ substrate protein remaining % ≤ 80%) | CK1α substrate protein remaining % (CK1α; [2]): B (80%< substrate protein remaining %≤ 100%) | IKZF2 substrate protein remaining % (IKZF2; [2]): A (0% ≤ substrate protein remaining % ≤ 80%) | GSPT1 substrate protein remaining % (GSPT1; [2]): B (80%< substrate protein remaining %≤ 100%) | inhibition at 0.5 µM [1]: 60 to 80% | inhibition at 2 µM [1]: 80 to 100%
